The text below walks through data of patent US6797861B2, “Seed shattering” (Bayer BioScience NV, priority 1995, dated 2004).

Format in all cases: in vivo, Brassica napus
The subject of assay [1] is pods (8% moisture) of oilseed rape cv Fido. Briefly: Cantilever bending test of pod opening force. As to conditions: plants sprayed. The procedure: (§1) Brassica napus cv Fido plants were grown in an unheated greenhouse. At 12 days after germination plants were transferred to, and further grown in, 1000 cm^3 compost. Pods were collected at one week intervals from two to eight weeks after anthesis. The pods were taken from the base of the terminal one of the first three axillary racemes. The pods were separated into dehiscence zone, pod wall and seeds.
In a further experiment ethylene production was inhibited by treating the pods with aminoethoxyvinylglycine (AVG), a competitive inhibitor of the enzyme ACC-synthase. AVG was applied 28 days after anthesis at 500 mg/l. […] Decreased endogenous ACC concentrations in both dehiscence zone and seeds of the treated pods correlated with the reduced ethylene production. […] A decrease in endogenous IAA content in the dehiscence zone preceding pod opening was also observed in these experiments both in control and in AVG-treated plants. […]
3) changes in the mechanical properties of the DZ and their seed shatter resistance by analysing the shatter resistance of individual pods. […] In yet another procedure, susceptibility to crack propagation is determined by friction measurement. In this case, the force generated due to friction between a wedge forced along the DZ is recorded and enables comparison of DZ tissues in selected, extreme examples of resistance.

Assay [2] has as its system pods of oilseed rape cv Fido. Kind of assay: Pod wall senescence and pod shatter tendency of treated plants. The following applies: spray at 150 mg/l, 35 days after anthesis. The protocol: as §1
In a further experiment ethylene production was inhibited by treating the pods with aminoethoxyvinylglycine (AVG), a competitive inhibitor of the enzyme ACC-synthase. AVG was applied 28 days after anthesis at 500 mg/l. […] Decreased endogenous ACC concentrations in both dehiscence zone and seeds of the treated pods correlated with the reduced ethylene production. […] A decrease in endogenous IAA content in the dehiscence zone preceding pod opening was also observed in these experiments both in control and in AVG-treated plants.
(§2) To examine the auxin involvement in pod shattering, the synthetic auxin 4-chlorophenoxyacetic acid (4CPA) was used to manipulate auxin levels. 4CPA was applied 35 days after anthesis as a spray at 150 mg/l in order to artificially keep auxin concentration at a high level during the entire period. […] No effect was observed on the endogenous phytohormone concentrations.

Assay [3] deals with endogenous ACC and IAA in pod tissues. Kind of assay: Endogenous phytohormone (ACC, IAA) concentrations in pod tissues. The following applies: spray at 150 mg/l, 35 days after anthesis. The procedure:
as §1
The samples were grinded with a mortar and pestle and then extracted for 16 hours at −20 C. in a total volume of 80% methanol. Purification and analysis of phytohormones was carried out essentially as described [Bialek and Cohen (1989), Plant Physiol. 90: 398; Prinsen et al. (1991), in: A Laboratory Guide for Cellular and Molecular Plant Biology. Ed. Negrutiu and Gharti-Chhetri. Birkhäuser Verlag, Basel/Boston/Berlin pp.175-185, pp.323-324; Chauvaux et al. (1993), J. Chromatogr. A 657: 337].
Different parts of the pods (pod wall, dehiscence zone and seeds) were screened for endogenous concentrations of the ethylene precursor 1-aminocyclopropane-1-carboxylic acid (ACC) and conjugates thereof as well as for indole-3-acetic acid (IAA) and conjugates thereof.
In a further experiment ethylene production was inhibited by treating the pods with aminoethoxyvinylglycine (AVG), a competitive inhibitor of the enzyme ACC-synthase. AVG was applied 28 days after anthesis at 500 mg/l. […]

A further assay relates to Beta-Glucanase. Kind of assay: Beta-glucanase activity in the dehiscence zone. The following applies: spray at 150 mg/l, 35 days after anthesis. The procedure: as §2

On to `O=C(O)COc1ccc(Cl)cc1` [4CPA, 4-chlorophenoxyacetic acid], for which, in assay [1], the “Force needed to initiate crack (pod opening)” value was 194.9 10^−3N and the “Force needed to propagate crack (pod opening)” value is given as 222.6 10^−3N. In assay [2], the “delay of pod wall senescence” value is given as “about two” and the pod shatter tendency result is reported as “distinct retardation”. Besides, in assay [3], the “effect on endogenous phytohormone concentrations” value is given as “No effect”. The “Beta-Glucanase activity in the dehiscence zone” value in the assay with Beta-Glucanase is “markedly decreased”.
